Assay results from patent US11446287B2, “Compounds and methods for EP300 or CBP modulation and indications therefor” (Opna Immuno-Oncology SA, priority 2019, dated 2022).
pIC50: −log10 of the molar value.

These compounds were tested against T1, Recombinant human CBP containing the bromodomain (CBP-BD (1043-1159)) (Homo sapiens, UniProt Q92793) (assay: CBP Alphascreen binding assay). Details: read-out: CREBBP (CBP) IC50.
T1 construct: Recombinant human CBP bromodomain (CBP-BD (1043-1159)); made in house; host or cells: E. coli BL21-CodonPlus (DE3), modified pET vector
T1 sequence (Q92793 1081-1197): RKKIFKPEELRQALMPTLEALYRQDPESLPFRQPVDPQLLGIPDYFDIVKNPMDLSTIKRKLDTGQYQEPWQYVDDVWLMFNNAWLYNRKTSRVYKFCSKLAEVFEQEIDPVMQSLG
Summary of the method: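 Buffer: 50 mM HEPES pH 7.5, 50 mM NaCl, 0.01% BSA, 0.01% Triton X-100, 2 mM DTT. The signal was normalised to plate controls and fitted with a four-parameter curve to give IC50.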

Row | Compound | pIC50
1 | Cc1noc(C)c1-c1cnc2c(-c3cccc(C(=O)O)c3)c(C(F)(F)F)n([C@@H](C)c3ccccn3)c2c1 [P-0162, (S)-3-(6-(3,5-dimethylisoxazol-4-yl)-1-(1-(pyridin-2-yl)ethyl)-2-(trifluoromethyl)-1H-pyrrolo[3,2-b]pyridin-3-yl)benzoic acid] | 6.00 to 10.00
2 | Cc1noc(C)c1-c1cnc2c(C(O)(C3CC3)C3CC3)cn(-c3ccc(C(=O)O)cc3OC(F)(F)F)c2c1 [P-0163, 4-(3-(dicyclopropyl(hydroxy)methyl)-6-(3,5-dimethylisoxazol-4-yl)-1H-pyrrolo[3,2-b]pyridin-1-yl)-3-(trifluoromethoxy)benzoic acid] | 6.00 to 10.00
3 | Cc1noc(C)c1-c1cnc2c(-c3cc(C(=O)O)ccc3Cl)cn(C(C)(c3ccccn3)c3ccccn3)c2c1 [P-0164, 4-chloro-3-(1-(1,1-di(pyridin-2-yl)ethyl)-6-(3,5-dimethylisoxazol-4-yl)-1H-pyrrolo[3,2-b]pyridin-3-yl)benzoic acid] | 6.00 to 10.00
4 | CCOc1cc(C(=O)O)cc(OCC)c1-n1cc(C(O)(C2CC2)C2CC2)c2ncc(-c3c(C)noc3C)cc21 [P-0165, 4-(3-(dicyclopropyl(hydroxy)methyl)-6-(3,5-dimethylisoxazol-4-yl)-1H-pyrrolo[3,2-b]pyridin-1-yl)-3,5-diethoxybenzoic acid] | 6.00 to 10.00
5 | Cc1noc(C)c1-c1cnc2c(-c3cc(C(=O)O)ccc3C#N)cn(C(C)(c3ccccn3)c3ccccn3)c2c1 [P-0166, 4-cyano-3-(1-(1,1-di(pyridin-2-yl)ethyl)-6-(3,5-dimethylisoxazol-4-yl)-1H-pyrrolo[3,2-b]pyridin-3-yl)benzoic acid] | 6.00 to 10.00
6 | C#Cc1ccccc1-c1cn(C(C)(c2ccccn2)c2ccccn2)c2cc(-c3c(C)noc3C)cnc12 [P-0167, 4-(1-(1,1-di(pyridin-2-yl)ethyl)-3-(2-ethynylphenyl)-1H-pyrrolo[3,2-b]pyridin-6-yl)-3,5-dimethylisoxazole] | 6.00 to 10.00
7 | CCOc1cc(C(=O)O)cc(OCC)c1-n1cc(-c2ccccc2)c2ncc(-c3c(C)noc3C)cc21 [P-0168, 4-(6-(3,5-dimethylisoxazol-4-yl)-3-phenyl-1H-pyrrolo[3,2-b]pyridin-1-yl)-3,5-diethoxybenzoic acid] | 6.00 to 10.00
8 | Cc1noc(C)c1-c1cnc2c(-c3ccccc3C#N)cn(C(C)(c3ccccn3)c3ccccn3)c2c1 [P-0169, 2-(1-(1,1-di(pyridin-2-yl)ethyl)-6-(3,5-dimethylisoxazol-4-yl)-1H-pyrrolo[3,2-b]pyridin-3-yl)benzonitrile] | 6.00 to 10.00
